Experimental data taken from the PolyMetriX glass transition set.
± gives the standard deviation of the reports.

Structure (SMILES) | glass transition temperature [°C]
*/C(=C/c1cc(OC)c(/C=C(/c2ccc(*)cc2)c2ccc(C(F)(F)F)cc2)cc1OC)c1ccc(C(F)(F)F)cc1 (repeat unit) | 208.00
*/C(=C/c1cc(OC)c(/C=C(/c2ccc(*)cc2)c2ccc(F)cc2)cc1OC)c1ccc(F)cc1 (repeat unit) | 193.00
*/C(=C/c1cc(OC)c(/C=C(/c2ccc(*)cc2)c2ccc(OC)cc2)cc1OC)c1ccc(OC)cc1 (repeat unit) | 170.00
*/C(=C/c1cc(OC)c(/C=C(\c2ccc(F)cc2)c2ccc(-c3ccc(*)cc3)cc2)cc1OC)c1ccc(F)cc1 (repeat unit) | 201.00
*/C(=C/c1cc(OCCCCCCCC)c(/C=C(\c2ccccc2)c2ccc3c(c2)Sc2ccc(*)cc2S3)cc1OCCCCCCCC)c1ccccc1 (repeat unit) | 93.00
*/C(C#N)=C/c1cc(OCCCCCCCCCCCC)c(/C=C(\C#N)c2cc(OCCCCCCCCCCCC)c(*)cc2OC)cc1OC (repeat unit) | 181.00
*/C=C(\C#N)C(=O)Nc1cc(-c2ccc(O)c(NC(=O)/C(C#N)=C/c3ccc(/C=C/c4ccc(N(c5ccccc5)c5ccc(N(c6ccccc6)c6ccc(/C=C/c7ccc(*)s7)cc6)cc5)cc4)s3)c2)ccc1O (repeat unit) | 221.00
*/C=C(\C#N)C(=O)OCCCCCCCCCCOC(=O)/C(C#N)=C/c1ccc2c(c1)c1cc(*)ccc1n2CCCCCCC (repeat unit) | 59.00
*/C=C(\C#N)C(=O)OCCCCCCOC(=O)/C(C#N)=C/c1ccc2c(c1)c1cc(*)ccc1n2CCCCCCC (repeat unit) | 87.00
*/C=C(\C#N)C(=O)OCCCCCCOC(=O)/C(C#N)=C/c1ccc2c(c1)c1cc(*)ccc1n2CCCCCCCCCCCCCC (repeat unit) | 53.00
*/C=C/C(C)C(*)C(=O)OC (repeat unit) | 53.00
*/C=C/C(C)C(*)C(=O)OCCCCCCN(C)c1ccc(N(C)C)cc1 (repeat unit) | 2.00
*/C=C/C(C*)OC (repeat unit) | -10.50
*/C=C/C1CC(*)C(C#N)(C[Si](C)(C)O[Si](C)(C)C)C1 (repeat unit) | 68.00
*/C=C/C1CC(*)C(C#N)([Si](C)(C)O[Si](C)(C)C)C1 (repeat unit) | 88.00
*/C=C/C1CC(*)C(C#N)([Si](C)(C)[Si](C)(C)C)C1 (repeat unit) | 120.00
*/C=C/C1CC(*)C(C(=O)OC)C1 (repeat unit) | 65.00
*/C=C/C1CC(*)C(C(=O)OCCNC(C)(C)C)C1 (repeat unit) | 29.00
*/C=C/C1CC(*)C(C(=O)Oc2ccccc2)C1 (repeat unit) | 72.60
*/C=C/C1CC(*)C(C2CC=CCC2)C1 (repeat unit) | 105.00
*/C=C/C1CC(*)C([Si](C)(C)C[Si](C)(C)C)C1 (repeat unit) | 24.00
*/C=C/C1CC(*)C2C(=O)N(CCC)C(=O)C12 (repeat unit) | 139.00
*/C=C/C1CC(*)C2C(=O)N(CCCCCCC)C(=O)C12 (repeat unit) | 59.00
*/C=C/C1CC(*)C2C(=O)N(CCCCCCCCCCCC)C(=O)C12 (repeat unit) | 50.00

Structure (SMILES) | glass transition temperature [°C]
*/C=C/C1CC(*)C2C(=O)N(c3ccccc3C)C(=O)C12 (repeat unit) | 248.00
*/C=C/C1CC(*)C2CC=CC12 (repeat unit) | 53.00
*/C=C/c1cc(OCC(CC)CCCC)c(*)cc1-c1ccc(N(c2ccc(OC)cc2)c2ccc(OC)cc2)cc1 (repeat unit) | 163.00
*/C=C/c1cc(OCCCCCC)c(*)cc1OC (repeat unit) | 60.00
*/C=C/c1ccc(/C=C/[Si](C)(C)c2ccc([Si](*)(C)C)cc2)cc1 (repeat unit) | 63.00
*/C=C/c1ccc(/C=C/[Si](C)(CCC(F)(F)F)c2cccc([Si](*)(C)CCC(F)(F)F)c2)cc1 (repeat unit) | 23.40
*/C=C/c1sc(-c2ccc(-c3ccc(-c4ccc(-c5sc(/C=C/C6=CC(=C(C#N)C#N)C=C(*)O6)c(CCCCCC)c5CCCCCC)s4)s3)s2)c(CCCCCC)c1CCCCCC (repeat unit) | 134.00
*/C=C/c1sc(-c2ccc(-c3sc(/C=C/C4=CC(=C(C#N)C#N)C=C(*)O4)c(CCCCCC)c3CCCCCC)s2)c(CCCCCC)c1CCCCCC (repeat unit) | 114.00
*C/C=C/C(C)S(*)(=O)=O (repeat unit) | 71.00
*C1C(*)C2CC1C(C(=O)OCC13CC4CC(CC(C4)C1)C3)C2C(=O)OCC12CC3CC(CC(C3)C1)C2 (repeat unit) | 328.00
*C1C(*)C2CC1C(C(=O)OCCC13CC4CC(CC(C4)C1)C3)C2C(=O)OCCC12CC3CC(CC(C3)C1)C2 (repeat unit) | 300.00
*C1C(*)C2CC1C(C(=O)OCc1ccccc1)C2C(=O)OCc1ccccc1 (repeat unit) | 277.00
*C1C(*)C2CC1C(COCc1ccccc1)C2COCc1ccccc1 (repeat unit) | 176.00
*C1C2C/C(=C\C)C(C2)C1* (repeat unit) | 61.40
*C1C2CC(C(=O)OCCc3ccc(N(c4ccccc4)c4cccc(C)c4)cc3)C(C2)C1* (repeat unit) | 305.00
*C1C2CC(C(=O)OCCc3ccc(N(c4ccccc4)c4cccc5ccccc45)cc3)C(C2)C1* (repeat unit) | 333.00
*C1C2CC(C)C(C2)C1* (repeat unit) | 350.00
*C1C2CCC(C2)C1* (repeat unit) | 240.00
*C1C2CCC(C2)C1S(*)(=O)=O (repeat unit) | 33.00
*C1C=C(CCCCCC)C(*)S1 (repeat unit) | 58.1
*C1C=CC(*)CC1 (repeat unit) | 125.50
*C1CCC(*)C1 (repeat unit) | 65.10
*CCCCCCCCCCOc1ccc(/C=C2\CC/C(=C\c3ccc(OCCCCCCCCCCOP(=O)(O*)OC)c(OC)c3)C2=O)cc1OC (repeat unit) | 48.00
*CCCCCCCCOc1c(OC)cc(/C=C/c2cc(C(C)C)c(/C=C/c3cc(OC)c(O*)c(OC)c3)cc2C(C)C)cc1OC (repeat unit) | 85.00

Structure (SMILES) | glass transition temperature [°C]
*CCCCCCOc1c(OC)cc(/C=C2\CCC/C(=C\c3cc(OC)c(O*)c(OC)c3)C2=O)cc1OC (repeat unit) | 71.00
*CCCCCCOc1ccc(/C=C2\CCC/C(=C\c3ccc(O*)c(OC)c3)C2=O)cc1OC (repeat unit) | 80.00
*CCCCOC(=O)/C=C/C(=O)O* (repeat unit) | 93.00
*CCN(CCOC(=O)/C=C/c1ccc(/C=C/C(=O)O*)cc1)c1ccc(/N=N/c2ccc([N+](=O)[O-])cc2)cc1 (repeat unit) | 120.00
*CCOCCOC(=O)/C=C/C(=O)O* (repeat unit) | -8.20
*CCOCCOCCOC(=O)/C=C/C(=O)NCCCCCCNC(=O)/C=C/C(=O)O* (repeat unit) | 65.00
*CCOCCOCCOCCOC(=O)/C=C/C(=O)NCCCCCCNC(=O)/C=C/C(=O)O* (repeat unit) | 52.00
*NNC(=O)/C=C/C(=O)Nc1cccc(/C=C2\CC/C(=C\c3cccc(NC(=O)/C=C/C(*)=O)c3)C2=O)c1 (repeat unit) | 104.60
*Oc1ccc(-c2ccc(OC(=O)/C=C/c3ccc(/C=C/C(*)=O)cc3)cc2)cc1 (repeat unit) | 243.00
*Oc1ccc(NC(=O)/C=C/C(=O)NNC(=O)/C=C/C(=O)Nc2ccc(OC(=O)/C=C/C(=O)NNC(=O)/C=C/C(*)=O)cc2)cc1 (repeat unit) | 265.00
*c1ccc(/C=C(\c2ccc(OC)cc2)c2ccc(/C(=C/c3ccc(N(*)c4ccccc4)cc3)c3ccc(OC)cc3)cc2)cc1 (repeat unit) | 197.00
*c1ccc(Cc2ccc(N3C(=O)C4CCC(C5CCC6C(=O)N(*)C(=O)C6C5)CC4C3=O)cc2)cc1 (repeat unit) | 260.00
*c1ccc(Oc2ccc(Oc3ccc(N4C(=O)C5CCC(C6CCC7C(=O)N(*)C(=O)C7C6)CC5C4=O)cc3)cc2)cc1 (repeat unit) | 238.00
*c1ccc(Oc2cccc(Oc3ccc(N4C(=O)C5CCC(C6CCC7C(=O)N(*)C(=O)C7C6)CC5C4=O)cc3)c2)cc1 (repeat unit) | 215.00
*c1ccc2c(c1)C(=O)N(C1CC(C)(C)CC(C)(CN3C(=O)c4ccc(C(*)(C(F)(F)F)C(F)(F)F)cc4C3=O)C1)C2=O (repeat unit) | 278.00
*c1ccc2c(c1)Sc1cc(-c3sc(/C=C/C4=CC(=C(C#N)C#N)C=C(/C=C/c5sc(*)c(CCCCCC)c5CCCCCC)O4)c(CCCCCC)c3CCCCCC)ccc1N2CCCCCC (repeat unit) | 130.00
*c1cccc(N2C(=O)C3CCC(C4CCC5C(=O)N(*)C(=O)C5C4)CC3C2=O)c1 (repeat unit) | 263.00
*/C=C/CC* (repeat unit) [1,4-polybutadiene] | -91.00 ± 5
*C(F)(F)C1(F)C(F)(F)C(*)(F)C(F)(F)C1(F)F (repeat unit) [Perfluoropolymer 3] | 117 ± 0.6
*c1ccc(*)cc1 (repeat unit) [Poly(1,4-phenylene)] | 278.18 ± 19
*CC(*)(C)C(=O)OCC (repeat unit) [Poly(1-(Diethylamino)ethyl methacrylate)] | 20 ± 27
*/C=C/CCC* (repeat unit) [Poly(1-pentenylene)] | -100.08 ± 7
*CC(*)c1ccc(Cl)cc1Cl (repeat unit) [Poly(2,4-dichloro styrene) ] | 133 ± 2.6
*CC(*)c1ccc(C)cc1C (repeat unit) [Poly(2,4-dimethyl styrene) ] | 112 ± 0.6
